Results published in ChEMBL document CHEMBL1773004, “1-[(1-methyl-1H-imidazol-2-yl)methyl]-4-phenylpiperidines as mGluR2 positive allosteric modulators for the treatment of psychosis” (J Med Chem, 2011).
Calls of active or inactive are those of the source. The rule behind the calls is not given here.

How the values were obtained:
D(2) dopamine receptor [1] = biological target: D(2) dopamine receptor (Rattus norvegicus, UniProt P61169); experiment: Displacement of [3H]spiperone from dopamine D2 receptor in rat corpus striatum by beta plate scintillation counting; assay type: tissue-based
[2] = biological target: Metabotropic glutamate receptor 2 (Rattus norvegicus, UniProt P31421); experiment: Positive allosteric modulation of rat mGluR2 expressed in HEK293 cells co-expressing Galpha15 G protein assessed as increase in glutamate-induced intracellular calcium release by FLIPR assay; assay type: functional, cell-based
HEK293 = experiment: Selectivity ratio of Ki for dopamine D2 receptor in rat corpus striatum to EC50 for rat mGluR2 expressed in HEK293 cells; assay type: cell-based
[3] = Cmax in rat brain at 10 mg/kg, po; assay type: ADME, organism-based; parameters: dose 10 mg/kg, route oral
[4] = Oral bioavailability in rat at 10 mg/kg; assay type: ADME, organism-based; conditions: in vivo
[5] = Plasma clearance in rat at 1 mg/kg, iv; assay type: ADME, organism-based; parameters: dose 1 mg/kg, route intravenous
[6] = Ratio of drug level in brain to plasma in rat at 3.2 mg/kg, sc after 60 mins; assay type: ADME, organism-based; parameters: dose 3.2 mg/kg, route subcutaneous
[7] = biological target: Metabotropic glutamate receptor 2 (Homo sapiens, UniProt Q14416); experiment: Positive allosteric modulation of human mGluR2 expressed in HEK293 cells co-expressing Galpha15 G protein assessed as increase in glutamate-induced intracellular calcium release by FLIPR assay; assay type: functional, cell-based
[8] = Permeability from apical to basolateral side of MDR1 transfected MDCK cells at 1 uM; assay type: ADME, cell-based, Canis lupus familiaris; conditions: dog, read-out: permeability
MDCK = experiment: Efflux ratio of permeability from […] of MDR1 transfected MDCK cells at 1 uM; assay type: ADME, cell-based, Canis lupus familiaris; conditions: dog
[9] = biological target: T1, 5-hydroxytryptamine receptor 1A (Homo sapiens) (UniProt P08908); experiment: Binding affinity to 5HT1A receptor at 3.16 uM
T1 sequence (whole entry): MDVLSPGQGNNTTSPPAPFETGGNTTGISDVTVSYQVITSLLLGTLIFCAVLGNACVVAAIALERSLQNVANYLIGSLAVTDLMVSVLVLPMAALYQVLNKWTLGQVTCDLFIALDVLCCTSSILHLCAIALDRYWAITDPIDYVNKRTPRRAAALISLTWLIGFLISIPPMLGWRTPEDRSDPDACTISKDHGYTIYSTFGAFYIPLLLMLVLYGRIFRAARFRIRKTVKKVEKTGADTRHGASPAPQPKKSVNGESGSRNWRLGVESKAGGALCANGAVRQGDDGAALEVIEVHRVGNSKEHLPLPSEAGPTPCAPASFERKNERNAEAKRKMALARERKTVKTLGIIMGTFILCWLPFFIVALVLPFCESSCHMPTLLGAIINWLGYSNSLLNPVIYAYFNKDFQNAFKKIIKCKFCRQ

[10] = biological target: Histamine H1 receptor (Homo sapiens) (UniProt P35367); experiment: Binding affinity to histamine H1 receptor at 3.16 uM
[11] = biological target: T2, Alpha-2A adrenergic receptor (Homo sapiens) (UniProt P08913); experiment: Binding affinity to adrenergic alpha2A receptor at 3.16 uM
T2 sequence (whole entry): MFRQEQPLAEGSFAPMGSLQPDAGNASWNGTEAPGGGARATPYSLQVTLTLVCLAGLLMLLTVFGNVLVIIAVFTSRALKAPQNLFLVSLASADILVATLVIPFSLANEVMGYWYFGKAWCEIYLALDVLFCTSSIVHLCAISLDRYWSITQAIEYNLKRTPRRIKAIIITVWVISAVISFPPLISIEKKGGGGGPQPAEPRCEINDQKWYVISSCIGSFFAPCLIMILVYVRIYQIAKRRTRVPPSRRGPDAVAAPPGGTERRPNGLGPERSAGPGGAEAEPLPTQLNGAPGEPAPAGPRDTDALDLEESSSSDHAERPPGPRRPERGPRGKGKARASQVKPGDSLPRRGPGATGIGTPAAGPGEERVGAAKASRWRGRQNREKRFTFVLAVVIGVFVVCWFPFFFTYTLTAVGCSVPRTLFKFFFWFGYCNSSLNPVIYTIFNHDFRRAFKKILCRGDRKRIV

[12] = biological target: 5-hydroxytryptamine receptor 2A (Homo sapiens) (UniProt P28223); experiment: Binding affinity to 5HT2A receptor at 3.16 uM
[13] = biological target: 5-hydroxytryptamine receptor 2B (Homo sapiens) (UniProt P41595); experiment: Binding affinity to 5HT2B receptor at 3.16 uM
[14] = biological target: T3, Muscarinic acetylcholine receptor M1 (Homo sapiens) (UniProt P11229); experiment: Binding affinity to muscarinic M1 receptor at 3.16 uM
T3 sequence (whole entry): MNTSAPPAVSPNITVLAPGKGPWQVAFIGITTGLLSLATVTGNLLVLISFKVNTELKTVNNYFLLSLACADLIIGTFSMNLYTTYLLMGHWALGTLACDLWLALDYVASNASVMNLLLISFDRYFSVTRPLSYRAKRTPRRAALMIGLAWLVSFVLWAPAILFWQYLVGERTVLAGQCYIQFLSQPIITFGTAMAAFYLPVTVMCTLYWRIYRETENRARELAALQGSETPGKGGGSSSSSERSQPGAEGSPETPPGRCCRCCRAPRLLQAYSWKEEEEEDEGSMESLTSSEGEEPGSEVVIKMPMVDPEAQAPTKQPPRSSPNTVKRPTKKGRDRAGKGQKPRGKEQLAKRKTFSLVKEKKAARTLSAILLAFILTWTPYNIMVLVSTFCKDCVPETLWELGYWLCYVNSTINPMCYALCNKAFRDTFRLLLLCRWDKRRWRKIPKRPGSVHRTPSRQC

D(2) dopamine receptor [15] = biological target: D(2) dopamine receptor (Homo sapiens, UniProt P14416); experiment: Antagonist activity at human dopamine D2 receptor expressed in CHO cells assessed as inhibition of quinpirole-induced effect; assay type: functional, cell-based
hERG (KCNH2) = hERG (KCNH2) (Homo sapiens, UniProt Q12809); experiment: Binding affinity to human ERG at 3.16 uM
[16] = biological target: Metabotropic glutamate receptor 1 (Homo sapiens) (UniProt Q13255); experiment: Agonist activity at mGlu1 receptor at up to 10 uM; assay type: functional
[17] = biological target: Metabotropic glutamate receptor 1 (Homo sapiens) (UniProt Q13255); experiment: Antagonist activity at mGlu1 receptor at up to 10 uM; assay type: functional
[18] = biological target: Metabotropic glutamate receptor 5 (Homo sapiens) (UniProt P41594); experiment: Agonist activity at mGlu5 receptor at up to 10 uM; assay type: functional
[19] = biological target: Metabotropic glutamate receptor 5 (Homo sapiens) (UniProt P41594); experiment: Antagonist activity at mGlu5 receptor at up to 10 uM; assay type: functional
[20] = biological target: Metabotropic glutamate receptor 5 (Homo sapiens) (UniProt P41594); experiment: Positive allosteric modulation of mGlu5 receptor at up to 10 uM

Metabotropic glutamate receptor 2 (Rattus norvegicus, UniProt P31421), sequence (P31421 whole entry): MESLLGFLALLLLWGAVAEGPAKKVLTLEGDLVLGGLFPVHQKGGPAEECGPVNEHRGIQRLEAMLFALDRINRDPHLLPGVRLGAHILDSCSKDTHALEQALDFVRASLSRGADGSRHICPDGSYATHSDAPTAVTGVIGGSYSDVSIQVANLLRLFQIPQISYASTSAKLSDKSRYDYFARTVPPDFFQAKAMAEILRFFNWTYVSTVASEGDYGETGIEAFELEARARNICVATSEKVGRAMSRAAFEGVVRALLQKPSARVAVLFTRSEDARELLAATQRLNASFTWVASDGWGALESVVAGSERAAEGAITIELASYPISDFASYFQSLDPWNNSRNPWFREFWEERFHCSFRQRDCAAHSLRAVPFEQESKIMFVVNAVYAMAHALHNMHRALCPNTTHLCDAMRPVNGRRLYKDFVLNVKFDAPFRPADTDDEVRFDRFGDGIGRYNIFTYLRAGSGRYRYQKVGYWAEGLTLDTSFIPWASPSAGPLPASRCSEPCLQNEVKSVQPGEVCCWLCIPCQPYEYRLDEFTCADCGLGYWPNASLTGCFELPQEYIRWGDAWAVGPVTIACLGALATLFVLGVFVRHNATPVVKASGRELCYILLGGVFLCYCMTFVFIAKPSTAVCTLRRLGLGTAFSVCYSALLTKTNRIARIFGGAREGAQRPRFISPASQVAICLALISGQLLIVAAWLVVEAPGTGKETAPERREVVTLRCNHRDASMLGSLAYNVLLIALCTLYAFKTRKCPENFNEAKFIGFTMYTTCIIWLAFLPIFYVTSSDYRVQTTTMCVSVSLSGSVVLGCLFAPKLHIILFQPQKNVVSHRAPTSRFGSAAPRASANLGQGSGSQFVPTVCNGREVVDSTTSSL
Metabotropic glutamate receptor 5 (Homo sapiens), sequence (P41594 21-1212 limits assumed): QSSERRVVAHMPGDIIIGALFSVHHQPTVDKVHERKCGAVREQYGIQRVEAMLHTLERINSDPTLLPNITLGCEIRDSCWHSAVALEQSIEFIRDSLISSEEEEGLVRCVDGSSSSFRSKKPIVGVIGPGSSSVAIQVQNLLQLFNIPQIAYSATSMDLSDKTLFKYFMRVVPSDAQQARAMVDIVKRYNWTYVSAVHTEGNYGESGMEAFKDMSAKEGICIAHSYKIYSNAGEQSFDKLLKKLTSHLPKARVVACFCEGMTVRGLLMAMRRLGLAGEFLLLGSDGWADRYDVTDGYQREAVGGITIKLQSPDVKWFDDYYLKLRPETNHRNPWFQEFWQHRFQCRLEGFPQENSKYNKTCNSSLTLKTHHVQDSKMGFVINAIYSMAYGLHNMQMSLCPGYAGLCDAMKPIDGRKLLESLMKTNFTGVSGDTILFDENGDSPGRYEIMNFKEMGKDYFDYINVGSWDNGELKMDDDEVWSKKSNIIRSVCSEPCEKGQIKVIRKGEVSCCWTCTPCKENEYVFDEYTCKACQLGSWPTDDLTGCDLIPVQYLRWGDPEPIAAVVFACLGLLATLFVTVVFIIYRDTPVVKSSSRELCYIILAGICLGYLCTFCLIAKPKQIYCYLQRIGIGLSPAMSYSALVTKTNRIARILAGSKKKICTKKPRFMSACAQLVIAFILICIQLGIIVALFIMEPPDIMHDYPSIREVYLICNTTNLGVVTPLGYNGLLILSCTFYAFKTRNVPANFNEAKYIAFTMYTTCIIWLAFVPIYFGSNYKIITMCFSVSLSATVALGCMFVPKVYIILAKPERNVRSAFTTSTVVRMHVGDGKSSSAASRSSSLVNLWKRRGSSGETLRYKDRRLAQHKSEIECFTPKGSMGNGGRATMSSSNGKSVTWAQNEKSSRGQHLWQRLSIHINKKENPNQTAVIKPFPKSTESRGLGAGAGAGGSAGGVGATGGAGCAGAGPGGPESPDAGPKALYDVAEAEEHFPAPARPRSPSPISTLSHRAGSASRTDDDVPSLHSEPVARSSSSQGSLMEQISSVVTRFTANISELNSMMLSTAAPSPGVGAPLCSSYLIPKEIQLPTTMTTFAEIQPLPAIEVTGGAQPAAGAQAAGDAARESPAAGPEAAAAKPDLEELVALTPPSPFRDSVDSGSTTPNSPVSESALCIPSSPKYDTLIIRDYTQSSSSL
D(2) dopamine receptor (Rattus norvegicus, UniProt P61169), sequence (P61169 whole entry): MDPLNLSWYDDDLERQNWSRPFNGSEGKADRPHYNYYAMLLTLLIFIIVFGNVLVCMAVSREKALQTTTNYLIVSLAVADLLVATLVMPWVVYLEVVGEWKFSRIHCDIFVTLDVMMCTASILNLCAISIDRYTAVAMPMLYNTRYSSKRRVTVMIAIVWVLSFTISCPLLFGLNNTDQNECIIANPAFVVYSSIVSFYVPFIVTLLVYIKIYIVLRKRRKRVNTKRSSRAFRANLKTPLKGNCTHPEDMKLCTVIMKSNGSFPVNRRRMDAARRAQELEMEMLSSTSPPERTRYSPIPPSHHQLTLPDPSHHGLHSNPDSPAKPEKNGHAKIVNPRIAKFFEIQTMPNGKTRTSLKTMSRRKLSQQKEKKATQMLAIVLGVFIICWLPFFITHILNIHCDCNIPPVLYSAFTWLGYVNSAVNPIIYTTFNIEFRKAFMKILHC
Metabotropic glutamate receptor 1 (Homo sapiens), sequence (Q13255 19-1194 limits assumed): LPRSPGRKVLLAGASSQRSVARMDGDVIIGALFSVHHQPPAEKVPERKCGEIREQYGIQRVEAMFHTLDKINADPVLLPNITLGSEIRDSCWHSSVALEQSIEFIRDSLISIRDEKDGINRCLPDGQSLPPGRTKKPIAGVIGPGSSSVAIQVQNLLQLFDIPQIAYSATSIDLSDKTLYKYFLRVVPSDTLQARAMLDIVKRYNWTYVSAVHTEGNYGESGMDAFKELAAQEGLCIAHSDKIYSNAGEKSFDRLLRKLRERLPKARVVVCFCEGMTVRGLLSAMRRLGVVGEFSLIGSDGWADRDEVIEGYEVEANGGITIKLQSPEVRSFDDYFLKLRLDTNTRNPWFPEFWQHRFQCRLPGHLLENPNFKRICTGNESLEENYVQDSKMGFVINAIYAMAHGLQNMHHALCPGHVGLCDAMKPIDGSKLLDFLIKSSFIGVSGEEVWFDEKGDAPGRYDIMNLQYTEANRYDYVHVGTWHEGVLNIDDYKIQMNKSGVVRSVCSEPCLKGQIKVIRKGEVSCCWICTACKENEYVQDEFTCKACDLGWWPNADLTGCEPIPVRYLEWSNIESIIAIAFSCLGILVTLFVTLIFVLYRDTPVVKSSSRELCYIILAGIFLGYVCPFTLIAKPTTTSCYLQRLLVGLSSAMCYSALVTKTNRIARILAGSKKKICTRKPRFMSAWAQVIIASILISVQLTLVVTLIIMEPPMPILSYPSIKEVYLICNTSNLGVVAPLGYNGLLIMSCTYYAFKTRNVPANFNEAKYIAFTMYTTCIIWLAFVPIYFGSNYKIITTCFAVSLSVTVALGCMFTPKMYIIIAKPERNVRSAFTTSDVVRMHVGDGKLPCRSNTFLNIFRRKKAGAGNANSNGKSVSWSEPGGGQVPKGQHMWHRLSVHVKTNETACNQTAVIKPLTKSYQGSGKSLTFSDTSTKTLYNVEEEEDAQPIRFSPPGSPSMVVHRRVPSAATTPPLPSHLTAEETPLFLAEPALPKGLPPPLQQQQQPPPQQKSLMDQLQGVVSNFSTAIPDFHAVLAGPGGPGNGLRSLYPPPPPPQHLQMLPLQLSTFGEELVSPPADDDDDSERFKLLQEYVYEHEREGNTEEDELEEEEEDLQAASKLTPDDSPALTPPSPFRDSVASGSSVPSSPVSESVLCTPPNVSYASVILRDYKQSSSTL
Metabotropic glutamate receptor 2 (Homo sapiens, UniProt Q14416), sequence (Q14416 whole entry): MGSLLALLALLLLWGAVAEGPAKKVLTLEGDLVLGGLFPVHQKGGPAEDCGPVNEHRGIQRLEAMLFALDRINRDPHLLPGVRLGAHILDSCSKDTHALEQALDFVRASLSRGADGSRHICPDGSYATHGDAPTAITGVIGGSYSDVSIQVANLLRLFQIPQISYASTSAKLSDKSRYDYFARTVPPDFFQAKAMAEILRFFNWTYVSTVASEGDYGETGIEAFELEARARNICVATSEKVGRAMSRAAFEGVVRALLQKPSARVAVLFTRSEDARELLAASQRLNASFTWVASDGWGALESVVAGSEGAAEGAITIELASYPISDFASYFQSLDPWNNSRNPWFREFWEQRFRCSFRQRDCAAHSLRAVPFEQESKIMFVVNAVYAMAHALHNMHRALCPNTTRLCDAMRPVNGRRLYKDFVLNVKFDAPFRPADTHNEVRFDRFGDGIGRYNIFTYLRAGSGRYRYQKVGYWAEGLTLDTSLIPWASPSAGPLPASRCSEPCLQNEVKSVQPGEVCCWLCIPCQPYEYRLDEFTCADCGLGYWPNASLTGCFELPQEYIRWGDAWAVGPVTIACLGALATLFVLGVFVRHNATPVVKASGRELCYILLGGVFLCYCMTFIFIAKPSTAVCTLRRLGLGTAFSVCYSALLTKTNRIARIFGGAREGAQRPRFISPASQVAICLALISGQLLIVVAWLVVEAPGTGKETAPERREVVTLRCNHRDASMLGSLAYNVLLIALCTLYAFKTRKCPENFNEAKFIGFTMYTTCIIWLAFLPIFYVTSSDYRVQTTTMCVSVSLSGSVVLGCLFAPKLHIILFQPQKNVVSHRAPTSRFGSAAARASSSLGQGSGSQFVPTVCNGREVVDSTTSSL
5-hydroxytryptamine receptor 2A (Homo sapiens), sequence (P28223 whole entry): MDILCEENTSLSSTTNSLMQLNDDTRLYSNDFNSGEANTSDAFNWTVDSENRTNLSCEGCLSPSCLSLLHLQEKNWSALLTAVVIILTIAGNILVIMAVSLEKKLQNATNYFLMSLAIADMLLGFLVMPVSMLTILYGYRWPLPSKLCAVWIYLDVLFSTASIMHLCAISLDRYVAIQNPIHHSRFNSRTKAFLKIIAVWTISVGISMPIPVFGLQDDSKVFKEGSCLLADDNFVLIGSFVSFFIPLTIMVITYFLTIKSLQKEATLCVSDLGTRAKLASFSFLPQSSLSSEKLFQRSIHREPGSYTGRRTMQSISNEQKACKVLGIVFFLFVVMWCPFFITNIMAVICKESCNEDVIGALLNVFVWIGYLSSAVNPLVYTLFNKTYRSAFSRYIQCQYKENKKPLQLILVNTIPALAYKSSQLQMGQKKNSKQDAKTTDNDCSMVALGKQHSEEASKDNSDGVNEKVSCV

| Compound | Ki (D(2) dopamine receptor [1]) | EC50 [2] | other results |
| --- | --- | --- | --- |
| C[C@@H]1C[C@H](c2ccc(C(F)(F)F)cc2)CCN1Cc1nc2ncccc2n1C | 589 nM | 454 nM |  |
| Cn1c(CN2CCC(c3ccc(C(F)(F)F)cc3)C(O)C2)nc2ncccc21 (trans isomer) |  | > 10000 nM |  |
| Cn1c(CN2CCC(c3ccc(C(F)(F)F)cc3)CC2)nc2cnccc21 | 671 nM | 168 nM |  |
| C[C@H]1CN(Cc2nc3ncccc3n2C)CC[C@H]1c1ccc(C(F)(F)F)cc1 | > 2800 nM | 33 nM |  |
| Cn1c(CN2CCC(c3ccc(F)cc3)CC2)nc2ccccc21 | 24 nM | 159 nM |  |
| Cn1c(CN2CCC(c3ccccc3F)CC2)nc2ccccc21 |  | 22 nM |  |
| C[C@@H]1CN(Cc2nc3ncccc3n2C)CC[C@@H]1c1ccc(C(F)(F)F)cc1F |  | 993 nM |  |
| Cn1c(CN2CCC(c3ccc(C(F)(F)F)cc3)CC2)nc2ncccc21 | 404 nM | 48 nM | Ratio (HEK293): 8; Cmax [3]: 5.21 µM; bioavailability [4]: 100%; clearance [5]: 5.4 mL/min/kg; Kp at 1 h [6]: 5; EC50 [7]: 43 nM; Papp A→B at 1 µM [8]: 30 ×10⁻⁶ cm/s; Ratio (MDCK): 1.4 |
| COc1cc(C(F)(F)F)ccc1C1CCN(Cc2nc3ncccc3n2C)CC1 | 2430 nM | 13 nM |  |
| Cn1c(CN2CCC(c3ccc(C(F)(F)F)cc3)CC2)nc2cccnc21 |  | 285 nM |  |
| CNC(=O)c1cccc(C2CCN(Cc3nc4ccccc4n3C)CC2)c1 |  | > 10000 nM |  |
| Cc1cc(C2CCN(Cc3nc4ccccc4n3C)CC2)nc(N2CCCC2)n1 |  | 4790 nM |  |
| COc1ccccc1C1CCN(Cc2nc3ccccc3n2C)CC1 | 426 nM | 87 nM | inhibition [9]: < 50%; inhibition [10]: < 50%; inhibition [11]: < 50%; inhibition [12]: < 50%; Papp A→B at 1 µM [8]: 25.8 ×10⁻⁶ cm/s; Ratio (MDCK): 1.28; inhibition [13]: < 50%; inhibition [14]: < 50%; EC50 (D(2) dopamine receptor [15]): 951 nM; inhibition at 3.16 µM (hERG (KCNH2)): < 50%; Activity [16]: inactive; Activity [17]: inactive; Activity [18]: inactive; Activity [19]: inactive; Activity [20]: inactive |
| Cn1c(CN2CCC(c3ccccc3C(F)(F)F)CC2)nc2ccccc21 |  | 109 nM |  |
| Cn1c(CN2[C@@H]3CC[C@H]2CC(c2ccc(C(F)(F)F)cc2)C3)nc2ncccc21 (stereo not given in full) | 355 nM | 184 nM |  |
| C[C@H]1CN(Cc2nc3ncccc3n2C)CC[C@H]1c1ccc(C(F)(F)F)cc1 (racemic) | > 2800 nM | 111 nM |  |
| Cn1c(CN2CCC(c3ccc(OC(F)(F)F)cc3F)CC2)nc2ncccc21 | 1180 nM | 25 nM |  |
